These results are taken from patent publication US9527807B2, “Sulfonamide derivative and use thereof” (Takeda Pharmaceutical Company Limited, priority 2011, dated 2016).

The target of assay [1] is T1, AMPA receptor (human GluR1 flip/stargazin expressed in CHO-K1 cells) (Homo sapiens, UniProt P42261).
T1 construct: expressed in transfected cells; host or cells: CHO-K1
Put plainly: AMPA receptor function enhancing activity using calcium influx as index. To be noted: change in fluorescence level in 3 min, 100% = 3 mM glutamic acid + 300 μM cyclothiazide, 0% = 3 mM glutamic acid only. It counts as cell-based. The essentials:
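CHO-K1 cells co-expressing human GluR1 flip and stargazin, Calcium 4 dye with 1.25 mM probenecid; compound added with glutamate (3 mM final), fluorescence change over 3 min. Activity (%) scaled between 3 mM glutamate alone (0%) and glutamate plus 300 μM cyclothiazide (100%).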

The test system of assay [2] is methamphetamine (MAP)-induced hyperlocomotion. Description: methamphetamine (MAP)-induced hyperlocomotion. The class given is in vivo. To be noted: FIG. 1.
The test system of assay [3] is MAP-induced hyperlocomotion in mice. Description: Inhibition of methamphetamine (MAP)-induced hyperlocomotion. The class given is in vivo. To be noted: male ICR mice; compound 10 mg/kg p.o. 60 min before MAP 2 mg/kg s.c.; counts 0-120 min after MAP; Welch's t-test; FIG. 1. How it is done:
Male ICR mice were supplied by CLEA Japan, Inc (Japan). After arrival to the vivarium, animals were allowed a minimum of 1 week for acclimation. They were housed under a 12:12-h light/dark cycle in a temperature- and humidity-controlled laboratory and allowed food and water ad libitum.
A test compound was suspended in 0.5% methylcellulose in distilled water and orally administered (p.o.). Methamphetamine (Dainippon Sumitomo Pharma Co., Ltd.) was dissolved in saline and subcutaneously administered (s.c.). All drugs were dosed in a volume of 10 mL/kg body weight for mice.
The widely used animal models of psychosis have been the measurement of the extent of hyperlocomotion induced by psychostimulants (e.g., amphetamine, cocaine, methamphetamine, MK-801 and phencyclidine) in rodents (Psychopharmacology 1999, vol. 145: 237-250). 2 compounds (A and B) were tested for its ability to antagonize MAP-induced hyperlocomotion in mice. Male ICR mice were habituated in the locomotor chambers with infrared sensors (BrainScienceIdea Co., Ltd. Japan) to the experiment. […] Locomotion activities were measured, and accumulated counts (120 min after administration of MAP) were calculated in each treatment group. All data were represented as means plus the standard errors of the means (n=3-8) and analyzed using Welch's t-test with significance set at ^$P<0.05, ^$$P<0.01 and ^$$$P<0.001. […]

T1 sequence (P42261 19-906 isoform P42261-2 limits assumed): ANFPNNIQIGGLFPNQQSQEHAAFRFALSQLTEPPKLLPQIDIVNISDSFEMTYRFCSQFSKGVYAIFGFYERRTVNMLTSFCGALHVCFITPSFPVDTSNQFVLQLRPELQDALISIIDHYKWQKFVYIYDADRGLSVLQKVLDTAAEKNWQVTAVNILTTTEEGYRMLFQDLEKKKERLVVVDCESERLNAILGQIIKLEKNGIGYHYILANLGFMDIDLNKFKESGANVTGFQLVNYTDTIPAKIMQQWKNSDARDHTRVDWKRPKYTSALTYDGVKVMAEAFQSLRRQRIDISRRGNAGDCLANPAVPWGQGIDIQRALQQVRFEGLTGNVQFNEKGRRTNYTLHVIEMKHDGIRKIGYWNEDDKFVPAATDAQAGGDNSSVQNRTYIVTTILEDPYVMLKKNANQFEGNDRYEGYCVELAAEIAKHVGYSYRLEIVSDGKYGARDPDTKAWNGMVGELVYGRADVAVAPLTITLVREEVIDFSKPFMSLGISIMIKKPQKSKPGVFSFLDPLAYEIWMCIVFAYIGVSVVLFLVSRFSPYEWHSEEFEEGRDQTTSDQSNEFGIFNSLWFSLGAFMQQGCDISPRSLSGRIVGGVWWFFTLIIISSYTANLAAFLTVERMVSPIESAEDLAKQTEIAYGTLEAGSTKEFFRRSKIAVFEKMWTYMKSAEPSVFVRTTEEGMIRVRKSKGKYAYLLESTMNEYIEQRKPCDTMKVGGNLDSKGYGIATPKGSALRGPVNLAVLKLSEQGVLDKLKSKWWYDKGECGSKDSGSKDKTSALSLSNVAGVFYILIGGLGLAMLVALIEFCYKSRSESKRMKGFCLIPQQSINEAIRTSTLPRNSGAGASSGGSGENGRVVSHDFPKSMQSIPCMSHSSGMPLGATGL
T1 sequence (Q9Y698 whole entry partner): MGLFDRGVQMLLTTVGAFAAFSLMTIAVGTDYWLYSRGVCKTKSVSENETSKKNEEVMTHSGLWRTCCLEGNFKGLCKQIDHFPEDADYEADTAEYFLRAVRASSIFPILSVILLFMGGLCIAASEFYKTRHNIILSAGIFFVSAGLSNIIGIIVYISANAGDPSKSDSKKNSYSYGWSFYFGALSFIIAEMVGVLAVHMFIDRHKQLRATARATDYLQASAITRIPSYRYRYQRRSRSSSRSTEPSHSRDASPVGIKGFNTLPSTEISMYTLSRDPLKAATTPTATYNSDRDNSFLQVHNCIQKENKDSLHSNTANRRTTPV

As to `Cn1cccc(-c2ccc(OC[C@H]3CSCC[C@@H]3NS(C)(=O)=O)cc2)c1=O` [Example 518, N-((3S,4S)-3-((4-(1-methyl-2-oxo-1,2-dihydropyridin-3-yl)phenoxy)methyl)tetrahydro-2H-thiopyran-4-yl)methanesulfonamide], the “activity (%)” value in assay [1] is recorded as 95%. Still for that read-out and setting: under `CS(=O)(=O)N[C@H]1CCSC[C@@H]1COc1ccc(C2CCOCC2)cc1` [Example 519, N-((3S,4S)-3-((4-(tetrahydro-2H-pyran-4-yl)phenoxy)methyl)tetrahydro-2H-thiopyran-4-yl)methanesulfonamide] stands 88%; under `CCS(=O)(=O)N[C@H]1CCSC[C@@H]1COc1ccc(-n2cc(C#N)cn2)cc1` [Example 522, N-((3S,4S)-3-((4-(4-cyano-1H-pyrazol-1-yl)phenoxy)methyl)tetrahydro-2H-thiopyran-4-yl)ethanesulfonamide], 95%; under `CCS(=O)(=O)N[C@H]1CCSC[C@@H]1COc1ccc(C2CCOCC2)cc1` [Example 529, N-((3S,4S)-3-((4-(tetrahydro-2H-pyran-4-yl)phenoxy)methyl)tetrahydro-2H-thiopyran-4-yl)ethanesulfonamide], 89%.

With `CS(=O)(=O)N[C@H]1CCOC[C@@H]1COc1ccc(-n2cc(Cl)cn2)cc1` [compound A, N-[(3R,4S)-3-{[4-(4-chloro-1H-pyrazol-1-yl)phenoxy]methyl}tetrahydro-2H-pyran-4-yl]methanesulfonamide], the “inhibition of methamphetamine (MAP)-induced hyperlocomotion” value in assay [2] is recorded as “inhibition”. Moreover, the “inhibition of MAP-induced hyperlocomotion (accumulated locomotion counts)” value in assay [3] was “significant inhibition”. Taken in the same sequence, the figures for `CCS(=O)(=O)N[C@H]1CCOC[C@@H]1COc1ccc(-n2cc(Cl)cn2)cc1F` [compound B, N-[(3R,4S)-3-{[4-(4-chloro-1H-pyrazol-1-yl)-2-fluorophenoxy]methyl}tetrahydro-2H-pyran-4-yl]ethanesulfonamide] were “inhibition” and “significant inhibition”.
